Measurements: ChEMBL document CHEMBL5055683, “Synthetic Sansanmycin Analogues as Potent Mycobacterium tuberculosis Translocase I Inhibitors” (J Med Chem, 2021)
In brackets after ≈: the same amount, converted by molar mass. Activity calls are given as the source filed them. The rule behind the calls is not given here.

Experiments:
[1] = test system: Mycobacterium tuberculosis H37Rv; test: Antimycobacterial activity against Mycobacterium tuberculosis H37Rv assessed as reduction in bacterial growth incubated for 5 days by resazurin assay; type: functional; details: 120 h, time 5 day
[2] = test system: Mycobacterium tuberculosis H37Rv; test: Antimycobacterial activity against Mycobacterium tuberculosis H37Rv infected in human THP-1 macrophages assessed as reduction in microbial growth incubated for 72 hrs; type: functional
[3] = Inhibition of Mycobacterium tuberculosis MurX using UDP-MurNAc-dansylpentapeptide as substrate by fluorescence assay
[4] = test system: Mycolicibacterium fortuitum; test: Antimycobacterial activity against Mycobacterium fortuitum PN assessed as reduction in bacterial growth measured every 1 hr for 16 to 20 hrs; type: functional; details: time 16-20 hrs
[5] = test system: Mycolicibacterium fortuitum; test: Antimycobacterial activity against Mycobacterium fortuitum RA 17 assessed as reduction in bacterial growth measured every 1 hr for 16 to 20 hrs; type: functional; details: time 16-20 hrs
[6] = test system: Mycobacterium tuberculosis; test: Bacteriostatic activity against Mycobacterium tuberculosis mc2 6230 at 10 times MIC after 28 days by time-kill kinetics method; type: functional, organism-based; details: time 28.0 day
[7] = test system: Staphylococcus epidermidis; test: Antibacterial activity against Staphylococcus epidermidis assessed as reduction in bacterial growth measured every 1 hr for 16 to 20 hrs; type: functional; details: time 16-20 hrs
[8] = Antimycobacterial activity against Mycobacterium abscessus subsp. abscessus assessed as reduction in bacterial growth measured every 1 hr for 16 to 20 hrs; type: functional; details: Mycobacteroides abscessus; time 16-20 hrs
Enterococcus faecium = test: Antibacterial activity against Enterococcus faecium ATCC 6569 assessed as reduction in bacterial growth measured every 1 hr for 16 to 20 hrs; type: functional; details: time 16-20 hrs
Mycobacterium avium = test: Antimycobacterial activity against Mycobacterium avium CA 6 assessed as reduction in bacterial growth measured every 1 hr for 16 to 20 hrs; type: functional; details: time 16-20 hrs
Staphylococcus aureus = test: Antibacterial activity against Staphylococcus aureus ATCC 29213 assessed as reduction in bacterial growth measured every 1 hr for 16 to 20 hrs; type: functional; details: time 16-20 hrs
Bacillus subtilis = test: Antibacterial activity against Bacillus subtilis 168 assessed as reduction in bacterial growth measured every 1 hr for 16 to 20 hrs; type: functional; details: time 16-20 hrs
[9] = test system: Mycobacterium tuberculosis; test: Antimycobacterial activity against Mycobacterium tuberculosis mc2 6230 assessed as reduction in bacterial growth incubated for 10 days by time-kill kinetics method; type: functional; details: mc2 6230, 240 h, time 10 day
Pseudomonas aeruginosa = test: Antibacterial activity against Pseudomonas aeruginosa ATCC 27853 assessed as reduction in bacterial growth measured every 1 hr for 16 to 20 hrs; type: functional; details: time 16-20 hrs
[10] = test system: Mycobacteroides abscessus; test: Antimycobacterial activity against Mycobacterium abscessus RA 16 assessed as reduction in bacterial growth measured every 1 hr for 16 to 20 hrs; type: functional; details: time 16-20 hrs
Escherichia coli = test: Antibacterial activity against Escherichia coli BW25113 assessed as reduction in bacterial growth measured every 1 hr for 16 to 20 hrs; type: functional; details: time 16-20 hrs
Mycobacterium marinum [11] = test: Antimycobacterial activity against Mycobacterium marinum infected in zebrafish assessed as reduction in bacterial burden at 100 uM after 5 days post infection by microscopic analysis; type: functional, organism-based; details: time 5.0 day
Mycobacterium marinum [12] = test: Antimycobacterial activity against Mycobacterium marinum infected in zebrafish assessed as reduction in bacterial burden at 100 uM after 3 days post infection by microscopic analysis; type: functional, organism-based; details: time 3.0 day

| SMILES | MIC50 [1] [µM] | MIC50 [2] [µM] | IC50 [3] [nM] | other results |
| --- | --- | --- | --- | --- |
| C[C@@H]([C@H](NC(=O)[C@H](Cc1ccc2ccccc2c1)NC(=O)N[C@@H](Cc1c[nH]c2ccccc12)C(=O)NCc1ccccc1)C(=O)NC[C@H]1C[C@@H](O)[C@H](n2ccc(=O)[nH]c2=O)O1)N(C)C(=O)CN | 0.0741 (≈ 0.0678 µg/mL) | 1.9 | 34 | – |
| CCCCCCOC(=O)[C@H](Cc1c[nH]c2ccccc12)NC(=O)N[C@@H](Cc1ccc2ccccc2c1)C(=O)N[C@H](C(=O)NC[C@H]1C[C@@H](O)[C@H](n2ccc(=O)[nH]c2=O)O1)[C@H](C)N(C)C(=O)CN | 0.0269 (≈ 0.0245 µg/mL) | 0.5 | 2670 | – |
| C[C@@H]([C@H](NC(=O)[C@H](CC1CCCCC1)NC(=O)N[C@@H](Cc1c[nH]c2ccccc12)C(=O)OCc1ccccc1)C(=O)NC[C@H]1C[C@@H](O)[C@H](n2ccc(=O)[nH]c2=O)O1)N(C)C(=O)CN | 0.0085 (≈ 0.00741 µg/mL) | 11.3 | 614 | – |
| CCCCCCCCCCCCOC(=O)[C@H](Cc1c[nH]c2ccccc12)NC(=O)N[C@@H](CC1CCCCC1)C(=O)N[C@H](C(=O)NC[C@H]1C[C@@H](O)[C@H](n2ccc(=O)[nH]c2=O)O1)[C@H](C)N(C)C(=O)CN | 0.142 (≈ 0.135 µg/mL) | – | – | – |
| COC(=O)[C@H](Cc1c[nH]c2ccccc12)NC(=O)N[C@@H](CC1CCCCC1)C(=O)N[C@H](C(=O)NC[C@H]1C[C@@H](O)[C@H](n2ccc(=O)[nH]c2=O)O1)[C@H](C)N(C)C(=O)CN | 0.0397 (≈ 0.0316 µg/mL) | – | – | – |
| C[C@@H]([C@H](NC(=O)[C@H](CC1CCCCC1)NC(=O)N[C@@H](Cc1c[nH]c2ccccc12)C(=O)NCC(C)(C)C)C(=O)NC[C@H]1C[C@@H](O)[C@H](n2ccc(=O)[nH]c2=O)O1)N(C)C(=O)CN | 0.0225 (≈ 0.0191 µg/mL) | 6.7 | 60 | MIC [4]: 1 µM (≈ 0.851 µg/mL); MIC [5]: 1 µM (≈ 0.851 µg/mL); Activity [6]: inactive; MIC [7]: > 132 µM; MIC [8]: 23 µM (≈ 19.6 µg/mL); MIC (Enterococcus faecium): > 132 µM; MIC (Mycobacterium avium): 1 µM (≈ 0.851 µg/mL); MIC (Staphylococcus aureus): > 132 µM; MIC (Bacillus subtilis): > 132 µM; MIC [9]: 0.313 µM (≈ 0.266 µg/mL); MIC (Pseudomonas aeruginosa): > 132 µM; MIC [10]: 23 µM (≈ 19.6 µg/mL); MIC (Escherichia coli): 88 µM (≈ 74.9 µg/mL) |
| CO[C@H]1/C=C/O[C@@]2(C)Oc3c(C)c(O)c4c(O)c(c(/C=N/N5CCN(C)CC5)c(O)c4c3C2=O)NC(=O)/C(C)=C\C=C\[C@H](C)[C@H](O)[C@@H](C)[C@@H](O)[C@@H](C)[C@H](OC(C)=O)[C@@H]1C [RIFAMPIN] | 0.00153 (≈ 0.00126 µg/mL) | – | – | Activity (Mycobacterium marinum [11]): Active |
| CCCCCCOC(=O)[C@H](Cc1c[nH]c2ccccc12)NC(=O)N[C@@H](CC1CCCCC1)C(=O)N[C@H](C(=O)NC[C@H]1C[C@@H](O)[C@H](n2ccc(=O)[nH]c2=O)O1)[C@H](C)N(C)C(=O)CN | 0.0172 (≈ 0.0149 µg/mL) | 9.5 | 1390 | – |
| C[C@@H]([C@H](NC(=O)[C@H](Cc1ccc2ccccc2c1)NC(=O)N[C@@H](Cc1c[nH]c2ccccc12)C(=O)NCC(C)(C)C)C(=O)NC[C@H]1C[C@@H](O)[C@H](n2ccc(=O)[nH]c2=O)O1)N(C)C(=O)CN | 0.0419 (≈ 0.0375 µg/mL) | 1.2 | 20 | MIC [4]: 2 µM (≈ 1.79 µg/mL); MIC [5]: 1 µM (≈ 0.895 µg/mL); Activity [6]: Active; MIC [7]: > 132 µM; MIC [8]: 26 µM (≈ 23.3 µg/mL); MIC (Enterococcus faecium): > 132 µM; MIC (Mycobacterium avium): 1 µM (≈ 0.895 µg/mL); MIC (Staphylococcus aureus): > 132 µM; MIC (Bacillus subtilis): 132 µM (≈ 118 µg/mL); MIC [9]: 0.181 µM (≈ 0.162 µg/mL); MIC (Pseudomonas aeruginosa): > 132 µM; MIC [10]: 13 µM (≈ 11.6 µg/mL); MIC (Escherichia coli): 132 µM (≈ 118 µg/mL); Activity (Mycobacterium marinum [12]): Active |
| C[C@@H]([C@H](NC(=O)[C@H](Cc1ccc2ccccc2c1)NC(=O)N[C@@H](Cc1c[nH]c2ccccc12)C(=O)O)C(=O)NC[C@H]1C[C@@H](O)[C@H](n2ccc(=O)[nH]c2=O)O1)N(C)C(=O)CN | 0.18 (≈ 0.149 µg/mL) | 4.3 | – | – |
| COC(=O)[C@H](Cc1c[nH]c2ccccc12)NC(=O)N[C@@H](Cc1ccc2ccccc2c1)C(=O)N[C@H](C(=O)NC[C@H]1C[C@@H](O)[C@H](n2ccc(=O)[nH]c2=O)O1)[C@H](C)N(C)C(=O)CN | 0.0652 (≈ 0.0548 µg/mL) | – | – | – |
| C[C@@H]([C@H](NC(=O)[C@H](CC1CCCCC1)NC(=O)N[C@@H](Cc1c[nH]c2ccccc12)C(=O)OCC(C)(C)C)C(=O)NC[C@H]1C[C@@H](O)[C@H](n2ccc(=O)[nH]c2=O)O1)N(C)C(=O)CN | 0.0059 (≈ 0.00503 µg/mL) | 12.5 | 712 | – |
| CCCCCCCCCCCCOC(=O)[C@H](Cc1c[nH]c2ccccc12)NC(=O)N[C@@H](Cc1ccc2ccccc2c1)C(=O)N[C@H](C(=O)NC[C@H]1C[C@@H](O)[C@H](n2ccc(=O)[nH]c2=O)O1)[C@H](C)N(C)C(=O)CN | 0.192 (≈ 0.191 µg/mL) | – | – | – |
| CCCCCCNC(=O)[C@H](Cc1c[nH]c2ccccc12)NC(=O)N[C@@H](CC1CCCCC1)C(=O)N[C@H](C(=O)NC[C@H]1C[C@@H](O)[C@H](n2ccc(=O)[nH]c2=O)O1)[C@H](C)N(C)C(=O)CN | 0.124 (≈ 0.107 µg/mL) | > 100 | 75 | – |
| CCCCCCNC(=O)[C@H](Cc1c[nH]c2ccccc12)NC(=O)N[C@@H](Cc1ccc2ccccc2c1)C(=O)N[C@H](C(=O)NC[C@H]1C[C@@H](O)[C@H](n2ccc(=O)[nH]c2=O)O1)[C@H](C)N(C)C(=O)CN | 0.0925 (≈ 0.0841 µg/mL) | 2.1 | 49 | – |
| C[C@@H]([C@H](NC(=O)[C@H](Cc1ccc2ccccc2c1)NC(=O)N[C@@H](Cc1c[nH]c2ccccc12)C(=O)OCc1ccccc1)C(=O)NC[C@H]1C[C@@H](O)[C@H](n2ccc(=O)[nH]c2=O)O1)N(C)C(=O)CN | 0.0132 (≈ 0.0121 µg/mL) | 5.1 | 1380 | – |
| C[C@@H]([C@H](NC(=O)[C@H](CC1CCCCC1)NC(=O)N[C@@H](Cc1c[nH]c2ccccc12)C(=O)NCc1ccccc1)C(=O)NC[C@H]1C[C@@H](O)[C@H](n2ccc(=O)[nH]c2=O)O1)N(C)C(=O)CN | 0.0454 (≈ 0.0395 µg/mL) | 4.6 | 66 | – |
| C[C@@H]([C@H](NC(=O)[C@H](Cc1ccc2ccccc2c1)NC(=O)N[C@@H](Cc1c[nH]c2ccccc12)C(=O)OCC(C)(C)C)C(=O)NC[C@H]1C[C@@H](O)[C@H](n2ccc(=O)[nH]c2=O)O1)N(C)C(=O)CN | 0.021 (≈ 0.0188 µg/mL) | 1.5 | 801 | – |
| C[C@@H]([C@H](NC(=O)[C@H](CC1CCCCC1)NC(=O)N[C@@H](Cc1c[nH]c2ccccc12)C(=O)O)C(=O)NC[C@H]1C[C@@H](O)[C@H](n2ccc(=O)[nH]c2=O)O1)N(C)C(=O)CN | 0.08 (≈ 0.0625 µg/mL) | 1.6 | 54 | – |
